Results reported in article PMC4310329, “The length of a lantibiotic hinge region has profound influence on antimicrobial activity and host specificity” (Frontiers in Microbiology, 2015).

Columns and labels:
Bacillus cereus = experiment: Agar well diffusion assay against Bacillus strains (Supplementary Figure 8); type: cell-based; conditions: 30°C for 18 hours, BHI agar, 5 µg nisin or +2 analogue in 50 µl 0.05% acetic acid
Procedure: (§1) The antimicrobial activity of the hinge region analogs in solid media were tested by an agar well diffusion assay. The diameters of the halos were measured and the residual activity of the analogs were estimated according to the formula of the relationship between the concentration of nisin and the sizes of halos. We made use of the fact that the size of the halo is directly related to the log of nisin concentration. Of course this is an estimate of activity of the variants because any changes in diffusion of the variant bacteriocin or growth rates of indicator bacteria during the assay could also affect the size of the halo. (Table 5 and Supplementary Figure 1). The plates were shown in supplementary data (Supplementary Figures 2–8). […] And against L. lactis at 20°C, the inhibition zone was larger than nisin. […] The M. luteus grows quite fast at room temperature and only the +2 variant retained 55% of the activity of nisin.
Supplementary Figure 7.Agar well diffusion assays of hinge region analogues against Bacillus sporotherm odurans IC4 . 2 µg of peptides w ere added per w ell. The plates were incub ated at 30 ° C […]
Supplementary Figure 8.Agar well diffusion assays of hinge region analogues against 4 kinds of Bacillus strains . 5µl overnight culture was mixed with 5ml BHI agar and poured into the plate. […]

B. sporothermodurans IC4 = experiment: Agar well diffusion assay; type: cell-based, Bacillus sporothermodurans; conditions: 30 °C; estimated from halo diameter by nisin standard curve, relative to wt
Procedure: (§2) L. lactis strains were cultured in M17 broth supplemented with 0.5% (w/v) glucose (GM17) or GM17 agar for genetic manipulation or in minimal expression medium (MEM) for protein expression at 30°C (Rink et al., [2005]). E. faecalis, S. aureus, S. pneumonia, and L. monocytogenes were grown in GM17 at 37°C or GM17 agar at different temperatures for agar diffusion assay. M. luteus was grown in Luria-Bertani broth shaken (200 rpm) at 30°C or LB agar at 20°C for agar diffusion assay. Bacillus strains were cultured in Brain Heart Infusion (BHI) shaken (200 rpm) or BHI agar at different temperatures for agar diffusion assay.
For the agar well diffusion assay, the same cultures as in the MIC value test were used and diluted 200 times with solid media. Identical sizes of wells (7.5 mm diameter) were made and 2 μg of hinge region analogs dissolved in 20 μl 0.05% acetic acid were added. The plates were incubated at different temperatures for at least 1 day until apparent halos appeared. For activity test at low temperature, the indicators were diluted in the same way but poured into smaller plates (52 mm diameter). The plates were incubated at 4°C overnight before the peptides were added. […] The diameters of the halos were measured.
The antimicrobial activity of the hinge region analogs in solid media were tested by an agar well diffusion assay. The diameters of the halos were measured and the residual activity of the analogs were estimated according to the formula of the relationship between the concentration of nisin and the sizes of halos. […]
(§3) To evaluate the activity of nisin on the agar plate, an agar well diffusion assay with gradient of nisin against Lactococcus lactis ( with two plasmids) was performed ( Supplementary Figur e 1 A). The diameter of the halos were measured (Supplementary Figure 1B). […]
the concentration of nisin is in liner relationship with diameter of the halos ( Supplementary Fi g u re 1C). According to the formula (1) , the relative activity of the peptides compared to nisin can be calculated b y the formula ( 2) . […]

L. lactis MG1363 = experiment: Agar well diffusion assay; type: cell-based, Lactococcus lactis; conditions: relative to wt
Procedure: as §2
(§4) For the agar well diffusion assay, the same cultures as in the MIC value test were used and diluted 200 times with solid media. Identical sizes of wells (7.5 mm diameter) were made and 2 μg of hinge region analogs dissolved in 20 μl 0.05% acetic acid were added. The plates were incubated at different temperatures for at least 1 day until apparent halos appeared. For activity test at low temperature, the indicators were diluted in the same way but poured into smaller plates (52 mm diameter). The plates were incubated at 4°C overnight before the peptides were added. B. sporothermodurans IC4 and B. cereus 4153 were first incubated with the peptides at 4°C for 2 weeks then moved to 30°C and incubated overnight. The diameters of the halos were measured.
as §1, with “of nisin. […]” for “of nisin.”
as §3
(§5) the concentration of nisin is in liner relationship with diameter of the halos ( Supplementary Fi g u re 1C). According to the formula (1) , the relative activity of the peptides compared to nisin can be calculated b y the formula ( 2) .
(§6) Supplementary Figure 1. Relationship between concentration of nisin and diameter of the halos. (A) Agar well diffusion assay. Gradient concentration of nisin were made and dissolved in 30µl 0.05% acetic acid. Lactococcus lactis ( with two plasmids) was cultured overnight and diluted 250 times with GM17 agar before added to the plate. The final concentration of the cells was about 2×10^6 cells/milliliter. The plate was incubated for 1 da y. Concentrations of nisin were labeled. (B) log10 of the concentrati ons and diameters of the halo. (C) A linear curve w as made betw een t he diameters of the halo and log10s of the concentration of nisin.
(§7) (1 picture or pasted object on this page, not shown here)
(§8) Last Name a uthor 1 et al. Running Title
(§9) C = concentration of nisin d° = diameter of the halo of wild t ype […]

L. monocytogenes = experiment: Agar well diffusion assay; type: cell-based, Listeria monocytogenes; conditions: estimated from halo diameter by nisin standard curve, relative to wt
Procedure: as §2, §4
as §1, with “of nisin. […]” for “of nisin.”
as §3, §5, §6, §7, §8, §9

S. aureus = experiment: Agar well diffusion assay; type: cell-based, Staphylococcus aureus; conditions: 20 °C; estimated from halo diameter by nisin standard curve, relative to wt
Procedure: as §2, §4
as §1, with “of nisin. […]” for “of nisin.”
as §3, §5
as §6, with “nisin. […]” for “nisin.”

E. faecalis VE14089 = experiment: Agar well diffusion assay; type: cell-based, Enterococcus faecalis; conditions: estimated from halo diameter by nisin standard curve, relative to wt
Procedure: as §2, §4
as §1, with “of nisin. […]” for “of nisin.”
as §3, §5, §6, §7, §8, §9

Listeria monocytogenes = experiment: MIC in liquid culture; type: cell-based; conditions: MIC value of nisin divided by that of the analog
Procedure: as §2
(§10) The indicator strains were cultured until OD (600 nm) reached 0.5. Before MIC value test, the culture was diluted 1000 times to make the concentration of cells around 5 × 10^5 per milliliter. The test was performed using a temperature controlled plate reader [Tecan200 (Tecan Group AG)] and 96 well plate (Greiner Bio-one). 180 μl indicator strain culture mixed with 20 μl hinge region analogs with final concentration from 0.031 μg/ml–32 μg/ml was incubated at 30°C or 37°C for 18 h. OD (600 nm) was checked every 30 min. For aerobic strains, 2 min of shaking was performed before every check. The concentration of peptide without observed growth of indicator strains was considered as the MIC value.

[1] = tested on: Enterococcus faecalis VE14089; experiment: MIC in liquid culture; type: cell-based; conditions: MIC value of nisin divided by that of the analog
Procedure: as §2, §10

[2] = tested on: Streptococcus pneumoniae R6; experiment: MIC in liquid culture; type: cell-based; conditions: MIC value of nisin divided by that of the analog
Procedure: as §2, §10

Micrococcus luteus = experiment: MIC in liquid culture; type: cell-based; conditions: MIC value of nisin divided by that of the analog
Procedure: as §2, §10

Bacillus cereus 4153 = experiment: MIC in liquid culture; type: cell-based; conditions: MIC value of nisin divided by that of the analog
Procedure: as §2, §10

[3] = tested on: Bacillus cereus (L′29) 16; experiment: MIC in liquid culture; type: cell-based; conditions: MIC value of nisin divided by that of the analog
Procedure: as §2, §10

Staphylococcus aureus = experiment: MIC in liquid culture; type: cell-based; conditions: MIC value of nisin divided by that of the analog
Procedure: as §2, §10

Bacillus cereus 4147 = experiment: MIC in liquid culture; type: cell-based; conditions: MIC value of nisin divided by that of the analog
Procedure: as §2, §10

[4] = tested on: Lactococcus lactis MG1363; experiment: MIC in liquid culture; type: cell-based; conditions: MIC value of nisin divided by that of the analog
Procedure: as §2, §10

M. luteus = experiment: Agar well diffusion assay; type: cell-based, Micrococcus luteus; conditions: 20 °C; estimated from halo diameter by nisin standard curve, relative to wt
Procedure: as §2, §4
as §1, with “of nisin. […]” for “of nisin.”
as §3, §5
as §6, with “nisin. […]” for “nisin.”

[5] = tested on: Bacillus sporothermodurans IC4; experiment: MIC in liquid culture; type: cell-based; conditions: MIC value of nisin divided by that of the analog
Procedure: as §2, §10

[6] = 20 °C, estimated from halo diameter by nisin standard curve (halo diameter vs log of nisin concentration)
[7] = 30 °C, estimated from halo diameter by nisin standard curve

With `C=C(NC(=O)[C@@H](NC(=O)[C@H](Cc1c[nH]cn1)NC(=O)[C@@H](NC(=O)[C@H](CO)NC(=O)[C@@H]1CS[C@@H](C)[C@H]2NC(=O)[C@H](C)NC(=O)[C@H](NC(=O)[C@H](CCCCN)NC(=O)[C@H](CCSC)NC(=O)[C@@H](NC(=O)[C@@H](NC(=O)[C@H](CC(N)=O)NC(=O)[C@@H]3CS[C@@H](C)[C@@H](NC(=O)[C@H](CCCCN)NC(=O)[C@@H]4CS[C@@H](C)[C@@H](NC(=O)[C@@H]5CSC[C@@H](NC(=O)/C(=C/C)NC(=O)[C@@H](N)[C@@H](C)CC)C(=O)N[C@@H]([C@@H](C)CC)C(=O)NC(=C)C(=O)N[C@@H](CC(C)C)C(=O)N5)C(=O)N5CCC[C@H]5C(=O)NCC(=O)N4)C(=O)NCC(=O)N[C@@H](C)C(=O)N[C@@H](CC(C)C)C(=O)N[C@@H](CCSC)C(=O)NCC(=O)N3)[C@@H](C)CC)C(C)C)[C@H](C)SC[C@H](NC2=O)C(=O)N[C@@H](Cc2c[nH]cn2)C(=O)N1)[C@@H](C)CC)C(C)C)C(=O)N[C@@H](CCCCN)C(=O)O` [+2] the “plate activity compared to nisin” value (Bacillus cereus) was “either equal or higher plate activity than nisin”, the Residual activity (B. sporothermodurans IC4) was 236% and the Residual activity (L. lactis MG1363; [6]) was 140%. For the same compound, the Residual activity (L. lactis MG1363; [7]) was 114%, the Residual activity (L. monocytogenes; 20 °C) was 139% and the Residual activity (L. monocytogenes; 30 °C) was 114%. The Residual activity (S. aureus) was 22%, the Residual activity (E. faecalis VE14089; 20 °C) was 144% and the Residual activity (E. faecalis VE14089; 30 °C) was 88%. The Residual activity (E. faecalis VE14089; 37 °C) was 101%, the “Residual activity of variants compared to nisin” value (Listeria monocytogenes) was 50% and the “Residual activity of variants compared to nisin” value [1] was 30%. The “Residual activity of variants compared to nisin” value [2] was 25%, the “Residual activity of variants compared to nisin” value (Micrococcus luteus) was 25% and the “Residual activity of variants compared to nisin” value (Bacillus cereus 4153) was 50%. The “Residual activity of variants compared to nisin” value [3] was 25%, the “Residual activity of variants compared to nisin” value (Staphylococcus aureus) was under 6% and the “Residual activity of variants compared to nisin” value (Bacillus cereus 4147) was 50%. The “Residual activity of variants compared to nisin” value [4] was 25% and the Residual activity (M. luteus) was 55%.

`C=C(NC(=O)[C@@H](NC(=O)[C@H](Cc1c[nH]cn1)NC(=O)[C@@H](NC(=O)[C@H](CO)NC(=O)[C@@H]1CS[C@@H](C)[C@H]2NC(=O)[C@H](C)NC(=O)[C@H](NC(=O)[C@H](CCCCN)NC(=O)[C@H](CC(N)=O)NC(=O)[C@@H]3CS[C@@H](C)[C@@H](NC(=O)[C@H](CCCCN)NC(=O)[C@@H]4CS[C@@H](C)[C@@H](NC(=O)[C@@H]5CSC[C@@H](NC(=O)/C(=C/C)NC(=O)[C@@H](N)[C@@H](C)CC)C(=O)N[C@@H]([C@@H](C)CC)C(=O)NC(=C)C(=O)N[C@@H](CC(C)C)C(=O)N5)C(=O)N5CCC[C@H]5C(=O)NCC(=O)N4)C(=O)NCC(=O)N[C@@H](C)C(=O)N[C@@H](CC(C)C)C(=O)N[C@@H](CCSC)C(=O)NCC(=O)N3)[C@H](C)SC[C@H](NC2=O)C(=O)N[C@@H](Cc2c[nH]cn2)C(=O)N1)[C@@H](C)CC)C(C)C)C(=O)N[C@@H](CCCCN)C(=O)O` [−1] showed a Residual activity (B. sporothermodurans IC4) of 522%, a Residual activity (L. lactis MG1363; [6]) of 33% and a Residual activity (L. lactis MG1363; [7]) of 17%. The Residual activity (L. monocytogenes; 20 °C) was 19%, the Residual activity (L. monocytogenes; 30 °C) was 29% and the Residual activity (S. aureus) was 16%. It also gave a Residual activity (E. faecalis VE14089; 20 °C) of 21%, a Residual activity (E. faecalis VE14089; 30 °C) of 72% and a Residual activity (E. faecalis VE14089; 37 °C) of 140%. For the same compound, the “Residual activity of variants compared to nisin” value (Listeria monocytogenes) was under 25%, the “Residual activity of variants compared to nisin” value [1] was under 6% and the “Residual activity of variants compared to nisin” value [2] was 25%. For the same compound, the “Residual activity of variants compared to nisin” value (Micrococcus luteus) was under 25%, the “Residual activity of variants compared to nisin” value (Bacillus cereus 4153) was under 13% and the “Residual activity of variants compared to nisin” value [3] was under 13%. The “Residual activity of variants compared to nisin” value [5] was 50%, the “Residual activity of variants compared to nisin” value (Staphylococcus aureus) was 3% and the “Residual activity of variants compared to nisin” value (Bacillus cereus 4147) was under 13%. The “Residual activity of variants compared to nisin” value [4] was 3% and the Residual activity (M. luteus) was 0%.
